Measurements as given in patent US20250041236A1, “METHOD FOR SYNTHESIZING GINSENOSIDE RG3-LOADED NANONIOSOMES” (priority 2024, published 2025).

Assay: In vitro release of Rg3 by the dialysis method
Assay type: physicochemical
Details: after 24 hours, PBS pH 7.4, 37° C.
Experimental: To estimate the Rg3-loaded nanoniosome's in vitro drug release profile, 1 mL of the formulation was placed inside a dialysis bag and then immersed in a PBS solution (maintained at 37° C. and a pH of 7.4) with constant stirring. The PBS solution surrounding the dialysis bag (which contained released Rg3) was extracted at different time intervals for 24 hours, and the absorbance intensity was measured at 203 nm. The quantity of Rg3 measured in the medium is divided by the starting amount of Rg3 in the formulation to determine the amount of Rg3 released.

## CC(C)=CCC[C@](C)(O)[C@H]1CC[C@]2(C)[C@@H]1[C@H](O)C[C@@H]1[C@@]3(C)CC[C@H](O[C@@H]4O[C@H](CO)[C@@H](O)[C@H](O)[C@H]4O[C@@H]4O[C@H](CO)[C@@H](O)[C@H](O)[C@H]4O)C(C)(C)[C@@H]3CC[C@]12C [Ginsenoside Rg3]
  release of the loaded drug: 24.78%
